US4897379A, “N-[N^α -(1(S)-carboxy-3-cyclohexylpropyl)-L-lysyl]-N-cyclopentylglycine as antihypertensives” (Asahi Breweries Ltd., priority 1987, dated 1990)

Key:
[1] = test system: angiotensin converting enzyme; conditions: Nature 288, 280 (1980); Chem. Pharm. Bull. 34, 1128 (1986); cited from earlier work
rabbit lung ACE = biological target: T1, rabbit lung ACE (Oryctolagus cuniculus, UniProt P12822); assay: Inhibition of rabbit lung ACE by the method of Friedland and Silverstein; type: biochemical; conditions: for IC50: rabbit lung ACE, method of Friedland and Silverstein, read-out: IC50 (M) = Concentration inhibiting 50% of the activity of rabbit lung ACE
T1 construct: from tissue; host or cells: rabbit lung
T1 sequence (P12822 34-1310): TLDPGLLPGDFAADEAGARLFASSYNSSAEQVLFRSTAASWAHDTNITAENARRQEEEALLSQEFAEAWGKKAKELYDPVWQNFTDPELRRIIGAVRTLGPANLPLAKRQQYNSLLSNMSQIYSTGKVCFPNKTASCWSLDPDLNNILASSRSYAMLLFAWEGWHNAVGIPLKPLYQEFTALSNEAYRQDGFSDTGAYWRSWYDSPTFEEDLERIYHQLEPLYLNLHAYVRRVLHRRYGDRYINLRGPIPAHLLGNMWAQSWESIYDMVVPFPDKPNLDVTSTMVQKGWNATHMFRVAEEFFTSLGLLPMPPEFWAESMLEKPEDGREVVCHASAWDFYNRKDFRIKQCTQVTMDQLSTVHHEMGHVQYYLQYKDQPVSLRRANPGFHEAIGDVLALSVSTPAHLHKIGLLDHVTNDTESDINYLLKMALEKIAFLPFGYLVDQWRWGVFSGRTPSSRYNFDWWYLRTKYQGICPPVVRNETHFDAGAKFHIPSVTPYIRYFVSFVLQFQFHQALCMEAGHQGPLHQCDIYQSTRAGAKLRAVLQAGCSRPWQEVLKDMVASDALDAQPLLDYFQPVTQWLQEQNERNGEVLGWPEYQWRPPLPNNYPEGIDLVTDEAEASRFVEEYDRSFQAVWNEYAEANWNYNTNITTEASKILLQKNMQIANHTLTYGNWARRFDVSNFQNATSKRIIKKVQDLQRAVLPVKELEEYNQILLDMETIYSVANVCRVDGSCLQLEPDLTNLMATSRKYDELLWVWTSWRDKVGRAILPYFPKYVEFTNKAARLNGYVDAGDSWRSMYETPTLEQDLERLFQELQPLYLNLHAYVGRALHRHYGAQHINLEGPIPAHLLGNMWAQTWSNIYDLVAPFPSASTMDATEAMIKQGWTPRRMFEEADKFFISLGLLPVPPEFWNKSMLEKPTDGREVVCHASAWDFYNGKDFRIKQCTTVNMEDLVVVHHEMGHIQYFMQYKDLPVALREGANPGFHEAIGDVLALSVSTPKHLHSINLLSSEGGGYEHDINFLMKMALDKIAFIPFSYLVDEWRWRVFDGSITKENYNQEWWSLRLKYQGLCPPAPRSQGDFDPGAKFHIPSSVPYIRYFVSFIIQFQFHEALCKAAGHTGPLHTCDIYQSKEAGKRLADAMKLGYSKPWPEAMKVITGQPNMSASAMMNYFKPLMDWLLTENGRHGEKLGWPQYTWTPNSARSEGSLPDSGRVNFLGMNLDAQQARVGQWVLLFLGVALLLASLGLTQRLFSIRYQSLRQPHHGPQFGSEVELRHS
Experimental: IC50 (M) = Concentration inhibiting 50% of the activity of rabbit
lung ACE was determined by the method of Friedland and Silverstein.

Compound | order of strength of activity [1] | IC50 (rabbit lung ACE) [M] | strength of activity relative to Lisinopril (rabbit lung ACE; ACE inhibition, compared with Lisinopril)
CCOC(=O)[C@H](CCc1ccccc1)N[C@@H](C)C(=O)N(CC(=O)O)C1Cc2ccccc2C1 [CV-3317] | Lisinopril>Enalapril>CV-3317 | – | –
NCCCC[C@H](N[C@@H](CCc1ccccc1)C(=O)O)C(=O)N1CCC[C@H]1C(=O)O [Lisinopril] | Lisinopril>Enalapril>CV-3317 | 1.1e-09 | –
CCOC(=O)[C@H](CCc1ccccc1)N[C@@H](C)C(=O)N1CCC[C@H]1C(=O)O [Enalapril] | Lisinopril>Enalapril>CV-3317 | – | –
NCCCC[C@H](N[C@@H](CCC1CCCCC1)C(=O)O)C(=O)N(CC(=O)O)C1CCCC1 [N-[N^α -(1(S)-carboxy-3-cyclohexylpropyl)-L-lysyl]-N-cyclopentylglycine] | – | 1e-10 | more than 10 times
